Data: patent US9884818B2, “Sulphamoylpyrrolamide derivatives and the use thereof as medicaments for the treatment of hepatitis B” (Janssen Sciences Ireland UC, priority 2013, dated 2018)

Key:
[1] = test system: HBV; assay: Anti-HBV activity, HepG2.2.15 stable transfected cell line, HBV DNA from secreted virions by realtime PCR; assay type: cell-based; details: Hepatitis B virus, HepG2.2.15, 144 h, HepG2.2.15 cells, 6 days of treatment, HBV DNA from secreted virions; read-out: HepG2 2.15 EC50
[2] = test system: HBV; assay: Anti-HBV activity, HepG2.117 inducibly HBV producing cell line (Tet-off), intracellular HBV DNA by realtime PCR; assay type: cell-based; details: Hepatitis B virus, HepG2.117, 72 h, HepG2.117 cells, 3 days of treatment, intracellular HBV DNA; read-out: HepG2 117 EC50
[3] = Cytotoxicity in HepG2 cells, Resazurin viability assay; details: human, HepG2 cells, HepG2 4 days CC50 (μM), incubated for 4 days, Resazurin assay

Cn1cc(S(=O)(=O)NC2(C)CC(F)(F)C2)cc1C(=O)Nc1ccc(F)c(Cl)c1F [Compound 256, N-(3-chloro-2,4-difluoro-phenyl)-4-[(3,3-difluoro-1-methyl-cyclo-butyl)sulfamoyl]-1-methyl-1H-pyrrole-2-carboxamide]
EC50 [1]: 20 nM | EC50 [2]: 30 nM | CC50 at 4 days [3]: > 25 µM

CCC(C)(NS(=O)(=O)c1cc(C(=O)Nc2ccc(F)c(Cl)c2F)n(C)c1)C(F)(F)F (stereo not drawn) [Compound 257, N-(3-chloro-2,4-difluoro-phenyl)-1-methyl-4-{[1-methyl-1-(trifluoro-methyl)propyl]sulfamoyl}-1H-pyrrole-2-carboxamide]
EC50 [1]: 80 nM | EC50 [2]: 90 nM | CC50 at 4 days [3]: > 25 µM

Cn1cc(S(=O)(=O)NC2(C(F)(F)F)CCOCC2)cc1C(=O)Nc1ccc(F)c(Cl)c1F [Compound 258, N-(3-chloro-2,4-difluoro-phenyl)-1-methyl-4-[[1-(trifluoromethyl)-tetrahydropyran-4-yl]sulfamoyl]-1H-pyrrole-2-carboxamide]
EC50 [1]: 30 nM | EC50 [2]: 20 nM | CC50 at 4 days [3]: > 25 µM

CCC(CC)(NS(=O)(=O)c1cc(C(=O)Nc2ccc(F)c(Cl)c2F)n(C)c1)C(F)(F)F [Compound 259, N-(3-chloro-2,4-difluoro-phenyl)-4-[[1-ethyl-1-(trifluoromethyl)-propyl]sulfamoyl]-1-methyl-1H-pyrrole-2-carboxamide]
EC50 [1]: 50 nM | EC50 [2]: 50 nM | CC50 at 4 days [3]: > 25 µM

CC(CC(F)(F)F)NS(=O)(=O)c1cc(C(=O)Nc2ccc(F)c(Cl)c2F)n(C)c1 (stereo not drawn) [Compound 260, N-(3-chloro-2,4-difluoro-phenyl)-1-methyl-4-[(3,3,3-trifluoro-1-methylpropyl)sulfamoyl]-1H-pyrrole-2-carboxamide]
EC50 [1]: 70 nM | EC50 [2]: 90 nM | CC50 at 4 days [3]: > 25 µM

Cn1cc(S(=O)(=O)NC(C)(C)CF)cc1C(=O)Nc1ccc(F)c(Cl)c1F [Compound 261]
EC50 [1]: 40 nM | EC50 [2]: 130 nM | CC50 at 4 days [3]: > 25 µM

CC[C@H](NS(=O)(=O)c1cc(C(=O)Nc2ccc(F)c(Cl)c2F)n(C)c1)C(F)(F)F [Compound 262, N-(3-chloro-2,4-difluoro-phenyl)-1-methyl-4-{[(1S)-1-(trifluoro-methyl)propyl]sulfamoyl}-1H-pyrrole-2-carboxamide]
EC50 [1]: 20 nM | EC50 [2]: 20 nM | CC50 at 4 days [3]: > 25 µM

Cn1cc(S(=O)(=O)NC2(C(F)(F)F)CCC2)cc1C(=O)Nc1ccc(F)c(Cl)c1F [Compound 263, N-(3-chloro-2,4-difluoro-phenyl)-1-methyl-4-{[1-(trifluoromethyl)-cyclobutyl]sulfamoyl}-1H-pyrrole-2-carboxamide]
EC50 [1]: 5 nM | EC50 [2]: 8 nM | CC50 at 4 days [3]: > 25 µM

Cn1cc(S(=O)(=O)NC(CF)CF)cc1C(=O)Nc1ccc(F)c(Cl)c1F [Compound 264, N-(3-chloro-2,4-difluoro-phenyl)-4-{[2-fluoro-1-(fluoromethyl)-ethyl]sulfamoyl}-1-methyl-1H-pyrrole-2-carboxamide]
EC50 [1]: 90 nM | EC50 [2]: 130 nM | CC50 at 4 days [3]: > 25 µM

CC[C@@H](NS(=O)(=O)c1cc(C(=O)Nc2ccc(F)c(Cl)c2F)n(C)c1)C(F)(F)F [Compound 265, N-(3-chloro-2,4-difluoro-phenyl)-1-methyl-4-{[(1R)-1-(trifluoro-methyl)propyl]sulfamoyl}-1H-pyrrole-2-carboxamide]
EC50 [1]: 10 nM | EC50 [2]: 30 nM | CC50 at 4 days [3]: > 25 µM

Cn1cc(S(=O)(=O)NC2(C(F)(F)F)CCOC2)cc1C(=O)Nc1ccc(F)c(Cl)c1F (stereo not drawn) [Compound 266, N-(3-chloro-2,4-difluoro-phenyl)-1-methyl-4-{[3-(trifluoromethyl)-tetrahydrofuran-3-yl]sulfamoyl}-1H-pyrrole-2-carboxamide]
EC50 [1]: 20 nM | EC50 [2]: 30 nM | CC50 at 4 days [3]: > 25 µM

Cn1cc(S(=O)(=O)NC2(C(F)(F)F)CCC2)c(Cl)c1C(=O)Nc1ccc(F)c(F)c1 [Compound 267, 3-chloro-N-(3,4-difluorophenyl)-1-methyl-4-{[1-(trifluoromethyl)-cyclobutyl]sulfamoyl}-1H-pyrrole-2-carboxamide]
EC50 [1]: 6 nM | EC50 [2]: 9 nM | CC50 at 4 days [3]: > 25 µM

Cn1cc(S(=O)(=O)NC2(C(F)(F)F)CCC2)c(Cl)c1C(=O)Nc1ccc(F)c(Cl)c1 [Compound 268, 3-chloro-N-(3-chloro-4-fluoro-phenyl)-1-methyl-4-{[1-(trifluoro-methyl)cyclobutyl]sulfamoyl}-1H-pyrrole-2-carboxamide]
EC50 [1]: 5 nM | EC50 [2]: 6 nM | CC50 at 4 days [3]: > 25 µM

CC(C)NS(=O)(=O)c1cn(C)c(C(=O)Nc2ccc(F)c(C#N)c2)c1Cl [Compound 269, 3-Chloro-N-(3-cyano-4-fluorophenyl)-1-methyl-4-[(1-methylethyl)sulfamoyl]-1H-pyrrole-2-carboxamide]
EC50 [1]: 50 nM | EC50 [2]: 70 nM | CC50 at 4 days [3]: > 25 µM

Cn1cc(S(=O)(=O)NC(C)(C)C(F)(F)F)c(Cl)c1C(=O)Nc1ccc(F)c(C#N)c1 [Compound 270, 3-Chloro-N-(3-cyano-4-fluorophenyl)-1-methyl-4-[(2,2,2-trifluoro-1,1-dimethylethyl)sulfamoyl]-1H-pyrrole-2-carboxamide]
EC50 [1]: 60 nM | EC50 [2]: 110 nM | CC50 at 4 days [3]: > 25 µM

Cn1cc(S(=O)(=O)NC2(C(F)(F)F)CC2)c(Cl)c1C(=O)Nc1ccc(F)c(C#N)c1 [Compound 271, 3-Chloro-N-(3-cyano-4-fluorophenyl)-1-methyl-4-{[1-(trifluoro-methyl)cyclopropyl]sulfamoyl}-1H-pyrrole-2-carboxamide]
EC50 [1]: 9 nM | EC50 [2]: 20 nM | CC50 at 4 days [3]: > 25 µM

Cc1c(F)ccc(NC(=O)c2c(Cl)c(S(=O)(=O)N[C@H](C)C(F)(F)F)cn2C)c1C#N [Compound 272, 3-chloro-N-(2-cyano-4-fluoro-3-methyl-phenyl)-1-methyl-4-[[(1R)-2,2,2-trifluoro-1-methyl-ethyl]sulfamoyl]pyrrole-2-carboxamide]
EC50 [1]: 300 nM | EC50 [2]: 760 nM | CC50 at 4 days [3]: > 25 µM

C[C@@H](NS(=O)(=O)c1cn(C)c(C(=O)Nc2ccc(F)cc2C#N)c1Cl)C(F)(F)F [Compound 273, 3-chloro-N-(2-cyano-4-fluoro-phenyl)-1-methyl-4-[[(1R)-2,2,2-trifluoro-1-methyl-ethyl]sulfamoyl]pyrrole-2-carboxamide]
EC50 [1]: 420 nM | EC50 [2]: 700 nM | CC50 at 4 days [3]: > 25 µM

C[C@@H](NS(=O)(=O)c1cn(C)c(C(=O)Nc2ccc(F)c(C(F)(F)F)c2)c1Cl)C(F)(F)F [Compound 274, 3-chloro-N-[4-fluoro-3-(trifluoromethyl)phenyl]-1-methyl-4-[[(1R)-2,2,2-trifluoro-1-methyl-ethyl]sulfamoyl]pyrrole-2-carboxamide]
EC50 [1]: 20 nM | EC50 [2]: 40 nM | CC50 at 4 days [3]: 19.4 µM

Cc1cccc(F)c1NC(=O)c1c(Cl)c(S(=O)(=O)N[C@H](C)C(F)(F)F)cn1C [Compound 275, 3-chloro-N-(2-fluoro-6-methyl-phenyl)-1-methyl-4-[[(1R)-2,2,2-trifluoro-1-methyl-ethyl]sulfamoyl]pyrrole-2-carboxamide]
EC50 [1]: 600 nM | EC50 [2]: 700 nM | CC50 at 4 days [3]: > 25 µM
